Consider 18 compounds from US20250368666A1, “INDAZOLE COMPOUNDS” (TYRA BIOSCIENCES, INC., priority 2022, published 2025).

What all share (assay): Kinase binding assay (kinase-tagged T7 phage, affinity beads, qPCR), Kd
On the technique in general: Real-time PCR tracks product formation cycle by cycle.

In one assay the target is T1, FGFR1 (Homo sapiens, UniProt P11362).
T1 construct: made in house; host or cells: E. coli (BL21-derived), T7 phage
Conditions: read-out: FGFR1 (Kd nM). An outline of the steps: (§1)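 First, phage lysates carrying tagged kinase are made in E. coli at 32° C. Next, they are combined with blocked biotin-ligand streptavidin beads and compound at 0.9% final DMSO. Finally, eluted kinase is measured by qPCR and Kd is fitted with the Hill equation.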

The next assay concerns the target T2, FGFR4 (Homo sapiens, UniProt P22455).
T2 construct: made in house; host or cells: E. coli (BL21-derived), T7 phage
Conditions: read-out: FGFR4 (Kd nM). Put shortly: as §1

The target of another assay is T3, FGFR3 (Homo sapiens, UniProt P22607).
T3 construct: made in house; host or cells: E. coli (BL21-derived), T7 phage
Conditions: read-out: FGFR3 (Kd nM). An outline of the steps:
as §1

The next assay has as its target T4, FGFR2 (Homo sapiens, UniProt P21802).
T4 construct: made in house; host or cells: E. coli (BL21-derived), T7 phage
Conditions: read-out: FGFR2 (Kd nM). Put shortly: as §1

The next assay concerns the target T5, FGFR3 (V555M) (Homo sapiens, UniProt P22607, V555M).
T5 construct: made in house; host or cells: E. coli (BL21-derived), T7 phage
Conditions: V555M mutant; read-out: FGFR3 (V555M) (Kd nM). Put shortly:
as §1

Molecules are shown by their SMILES. A value given as a limit tells only on which side of the number the result lay.

The term Kd denotes the free concentration of one partner at which half of the binding sites on the other are occupied at equilibrium, for simple one-to-one binding.

T3 sequence (P22607 23-806): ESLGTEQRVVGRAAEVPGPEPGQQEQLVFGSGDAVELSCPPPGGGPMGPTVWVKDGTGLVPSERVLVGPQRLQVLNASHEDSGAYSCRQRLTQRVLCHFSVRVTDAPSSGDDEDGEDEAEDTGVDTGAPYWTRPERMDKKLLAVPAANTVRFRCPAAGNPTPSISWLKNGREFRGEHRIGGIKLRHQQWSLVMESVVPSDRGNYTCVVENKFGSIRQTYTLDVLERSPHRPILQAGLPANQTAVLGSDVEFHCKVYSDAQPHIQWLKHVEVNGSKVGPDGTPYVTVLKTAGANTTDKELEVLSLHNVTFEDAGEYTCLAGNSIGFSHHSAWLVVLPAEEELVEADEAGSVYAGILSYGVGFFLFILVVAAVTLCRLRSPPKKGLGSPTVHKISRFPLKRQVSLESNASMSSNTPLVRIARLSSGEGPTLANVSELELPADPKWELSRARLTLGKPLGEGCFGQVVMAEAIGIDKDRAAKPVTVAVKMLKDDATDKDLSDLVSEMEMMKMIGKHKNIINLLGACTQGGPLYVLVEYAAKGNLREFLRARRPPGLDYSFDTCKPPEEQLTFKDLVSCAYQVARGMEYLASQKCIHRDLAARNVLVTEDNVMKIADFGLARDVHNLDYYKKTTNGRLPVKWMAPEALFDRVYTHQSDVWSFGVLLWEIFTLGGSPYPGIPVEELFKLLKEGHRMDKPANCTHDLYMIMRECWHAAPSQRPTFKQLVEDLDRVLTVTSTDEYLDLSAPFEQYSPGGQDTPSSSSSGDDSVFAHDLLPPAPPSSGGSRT
T5 sequence (P22607 23-806 V555M): as the sequence (P22607 23-806) above, with V533M counted along it
T4 sequence (P21802 22-821): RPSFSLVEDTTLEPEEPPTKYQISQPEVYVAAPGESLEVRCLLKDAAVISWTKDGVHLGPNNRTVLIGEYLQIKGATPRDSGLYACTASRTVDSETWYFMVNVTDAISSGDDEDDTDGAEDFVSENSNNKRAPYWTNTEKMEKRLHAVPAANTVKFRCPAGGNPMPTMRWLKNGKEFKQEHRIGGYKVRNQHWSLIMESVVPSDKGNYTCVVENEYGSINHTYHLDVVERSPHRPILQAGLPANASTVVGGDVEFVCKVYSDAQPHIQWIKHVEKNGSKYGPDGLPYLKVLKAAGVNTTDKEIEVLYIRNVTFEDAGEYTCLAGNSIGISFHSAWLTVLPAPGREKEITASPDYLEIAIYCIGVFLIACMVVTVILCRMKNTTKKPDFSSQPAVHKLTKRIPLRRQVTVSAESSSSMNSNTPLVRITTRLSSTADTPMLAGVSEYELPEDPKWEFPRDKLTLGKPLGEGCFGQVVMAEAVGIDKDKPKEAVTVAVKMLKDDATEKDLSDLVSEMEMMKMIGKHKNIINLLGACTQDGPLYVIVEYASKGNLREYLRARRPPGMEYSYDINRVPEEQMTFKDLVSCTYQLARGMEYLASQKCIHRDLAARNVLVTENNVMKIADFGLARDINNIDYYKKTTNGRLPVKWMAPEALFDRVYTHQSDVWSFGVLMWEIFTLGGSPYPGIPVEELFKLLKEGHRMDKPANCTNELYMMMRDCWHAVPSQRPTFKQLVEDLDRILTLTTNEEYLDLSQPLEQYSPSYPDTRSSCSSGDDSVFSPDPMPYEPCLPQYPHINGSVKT
T1 sequence (P11362 22-822): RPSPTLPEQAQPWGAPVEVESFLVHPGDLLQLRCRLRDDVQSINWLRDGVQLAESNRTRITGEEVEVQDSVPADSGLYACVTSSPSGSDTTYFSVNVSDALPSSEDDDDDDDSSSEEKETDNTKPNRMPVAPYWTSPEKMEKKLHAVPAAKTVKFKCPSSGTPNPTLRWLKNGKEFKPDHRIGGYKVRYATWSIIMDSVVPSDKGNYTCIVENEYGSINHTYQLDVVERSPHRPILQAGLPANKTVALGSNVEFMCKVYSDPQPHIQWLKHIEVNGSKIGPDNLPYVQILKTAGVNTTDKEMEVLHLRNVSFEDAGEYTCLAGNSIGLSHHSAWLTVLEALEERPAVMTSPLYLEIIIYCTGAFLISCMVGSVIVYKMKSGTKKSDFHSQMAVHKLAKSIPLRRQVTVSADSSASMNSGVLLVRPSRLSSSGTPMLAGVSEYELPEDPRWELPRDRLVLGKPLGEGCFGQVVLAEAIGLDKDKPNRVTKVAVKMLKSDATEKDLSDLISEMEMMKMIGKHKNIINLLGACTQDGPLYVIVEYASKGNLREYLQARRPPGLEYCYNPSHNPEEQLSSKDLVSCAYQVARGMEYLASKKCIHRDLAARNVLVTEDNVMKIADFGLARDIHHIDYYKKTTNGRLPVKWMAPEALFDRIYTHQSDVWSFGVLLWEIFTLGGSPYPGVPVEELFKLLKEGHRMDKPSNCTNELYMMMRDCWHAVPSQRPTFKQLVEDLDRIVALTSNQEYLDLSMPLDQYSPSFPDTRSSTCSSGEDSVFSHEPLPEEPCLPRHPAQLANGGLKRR
T2 sequence (P22455 22-802): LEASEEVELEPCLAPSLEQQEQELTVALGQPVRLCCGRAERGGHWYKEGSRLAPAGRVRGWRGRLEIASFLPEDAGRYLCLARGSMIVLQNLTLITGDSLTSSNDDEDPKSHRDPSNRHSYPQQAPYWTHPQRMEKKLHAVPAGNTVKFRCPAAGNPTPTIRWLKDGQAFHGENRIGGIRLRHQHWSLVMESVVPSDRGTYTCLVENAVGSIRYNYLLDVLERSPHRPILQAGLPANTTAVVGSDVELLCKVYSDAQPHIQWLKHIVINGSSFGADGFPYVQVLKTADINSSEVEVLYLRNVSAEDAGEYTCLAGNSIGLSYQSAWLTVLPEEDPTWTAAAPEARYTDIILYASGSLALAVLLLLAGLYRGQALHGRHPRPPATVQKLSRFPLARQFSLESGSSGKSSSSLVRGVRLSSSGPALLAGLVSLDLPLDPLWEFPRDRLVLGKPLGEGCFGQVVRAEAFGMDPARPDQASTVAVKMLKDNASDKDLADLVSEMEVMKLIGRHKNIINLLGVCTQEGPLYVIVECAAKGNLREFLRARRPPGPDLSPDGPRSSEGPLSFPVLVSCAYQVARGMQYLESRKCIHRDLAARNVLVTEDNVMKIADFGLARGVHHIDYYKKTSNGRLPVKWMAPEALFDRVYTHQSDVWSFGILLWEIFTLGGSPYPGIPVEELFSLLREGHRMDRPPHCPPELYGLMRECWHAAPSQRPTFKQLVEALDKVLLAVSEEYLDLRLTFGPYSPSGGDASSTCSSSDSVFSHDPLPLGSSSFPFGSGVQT

Consider `C[C@H](O)CNC1(C)CN(c2ncc(-c3n[nH]c4ccc(O[C@H](C)c5c(Cl)cncc5Cl)c(F)c34)cc2F)C1` [Example 176, (S)-1-((1-(5-(5-((R)-1-(3,5-dichloropyridin-4-yl)ethoxy)-4-fluoro-1H-indazol-3-yl)-3-fluoropyridin-2-yl)-3-methylazetidin-3-yl)amino)propan-2-ol], for which the Kd on FGFR1 is 300 to 1000 nM; on FGFR4, 50 to 300 nM; at FGFR3, 50 to 300 nM; at FGFR2, above 1000 nM; on FGFR3 (V555M), 50 to 300 nM.

In the case of `C[C@@H](Oc1ccc2[nH]nc(-c3ccc(N4CC(C)(N5CCCC5)C4)nc3)c2c1F)c1c(Cl)cncc1Cl` [Example 177, (R)-5-(1-(3,5-dichloropyridin-4-yl)ethoxy)-4-fluoro-3-(6-(3-methyl-3-(pyrrolidin-1-yl)azetidin-1-yl)pyridin-3-yl)-1H-indazole], the Kd on FGFR1 lay in the range of 50 to 300 nM; at FGFR4, 50 to 300 nM; on FGFR3 it was 1 to 50 nM; on FGFR2, 300 to 1000 nM; on FGFR3 (V555M), 1 to 50 nM.

`C[C@@H](Oc1ccc2[nH]nc(-c3cnc(N4CC(C)(CNCCO)C4)c(F)c3)c2c1)c1c(Cl)cncc1Cl` [Example 178, (R)-2-(((1-(5-(5-(1-(3,5-dichloro-pyridin-4-yl)ethoxy)-1H-indazol-3-yl)-3-fluoropyridin-2-yl)-3-methylazetidin-3-yl)methyl)amino) ethanol]: the Kd on FGFR1, at FGFR4, on FGFR3, on FGFR2 and at FGFR3 (V555M) was 1 to 50 nM throughout.

As for `COc1cc2[nH]nc(-c3cnc(N4CC(C)(CP(C)(C)=O)C4)c(F)c3)c2cc1O[C@H](C)c1c(Cl)cncc1Cl` [Example 179, (R)-((1-(5-(5-(1-(3,5-dichloro-pyridin-4-yl)ethoxy)-6-methoxy-1H-indazol-3-yl)-3-fluoropyridin-2-yl)-3-methylazetidin-3-yl)methyl)dimethyl-phosphine oxide], the Kd at FGFR1, at FGFR4, at FGFR3, on FGFR2 and at FGFR3 (V555M) was 1 to 50 nM each time.

For `COc1cc2[nH]nc(-c3ccc(N4CC(C)(CP(C)(C)=O)C4)nc3)c2cc1O[C@H](C)c1c(Cl)cncc1Cl` [Example 180, (R)-((1-(5-(5-(1-(3,5-dichloro-pyridin-4-yl)ethoxy)-6-meth-oxy-1H-inda-zol-3-yl)pyridin-2-yl)-3-methylazetidin-3-yl)methyl)dimethyl-phosphine oxide], the Kd at FGFR1, on FGFR4, on FGFR3, at FGFR2 and on FGFR3 (V555M) was 1 to 50 nM throughout.

On to `C[C@@H](Oc1ccc2[nH]nc(-c3cnc(N4CC(C)(N5CCOCC5)C4)c(F)c3)c2c1F)c1c(Cl)cncc1Cl` [Example 183, (R)-4-(1-(5-(5-(1-(3,5-dichloro-pyridin-4-yl)ethoxy)-4-fluoro-1H-indazol-3-yl)-3-fluoropyridin-2-yl)-3-methylazetidin-3-yl)morpholine], for which the Kd at FGFR1 is 300 to 1000 nM; on FGFR4, 50 to 300 nM; on FGFR3 it was 50 to 300 nM; on FGFR2 it was above 1000 nM; on FGFR3 (V555M), 50 to 300 nM.

For the compound `C[C@@H](Oc1ccc2[nH]nc(-c3cnc(N4CC(C)(N5CCC5)C4)c(F)c3)c2c1F)c1c(Cl)cncc1Cl` [Example 184, (R)-5-(1-(3,5-dichloropyridin-4-yl)ethoxy)-4-fluoro-3-(5-fluoro-6-(3′-methyl-[1,3′-biazetidin]-1′-yl)pyridin-3-yl)-1H-indazole], the Kd at FGFR1 was 300 to 1000 nM; on FGFR4, 50 to 300 nM; at FGFR3 it was 1 to 50 nM; on FGFR2, 300 to 1000 nM; on FGFR3 (V555M) it was 1 to 50 nM.

`C[C@@H](Oc1ccc2[nH]nc(-c3cnc(N4CC(C)(CN5CCCC5)C4)c(F)c3)c2c1F)c1c(Cl)cncc1Cl` [Example 185, (R)-5-(1-(3,5-dichloropyridin-4-yl)ethoxy)-4-fluoro-3-(5-fluoro-6-(3-methyl-3-(pyrrolidin-1-ylmethyl)azetidin-1-yl)pyridin-3-yl)-1H-indazole]: the Kd fell in the range of 300 to 1000 nM at FGFR1; 50 to 300 nM at FGFR4; 50 to 300 nM on FGFR3; 300 to 1000 nM at FGFR2; 50 to 300 nM on FGFR3 (V555M).

As to `C[C@@H](Oc1cc2c(-c3ccc(N4CC(C)(CN5CCOCC5)C4)nc3)n[nH]c2cc1F)c1c(Cl)cncc1Cl` [Example 186, (R)-4-((1-(5-(5-(1-(3,5-dichloro-pyridin-4-yl)ethoxy)-6-fluoro-1H-indazol-3-yl)pyridin-2-yl)-3-methylazetidin-3-yl)methyl)morpho-line], the Kd on FGFR1, on FGFR4, on FGFR3, at FGFR2 and at FGFR3 (V555M) was 1 to 50 nM in each case.

Turning to `C[C@@H](Oc1ccc2[nH]nc(-c3ccc(N4CC(C)(CP(C)(C)=O)C4)nc3)c2c1F)c1c(Cl)cncc1Cl` [Example 187, (R)-((1-(5-(5-(1-(3,5-dichloro-pyridin-4-yl)ethoxy)-4-fluoro-1H-indazol-3-yl)pyridin-2-yl)-3-methylazetidin-3-yl)methyl)dimethyl-phosphine oxide], the Kd was above 1000 nM at FGFR1; 300 to 1000 nM at FGFR4; 50 to 300 nM on FGFR3; 300 to 1000 nM at FGFR2; 50 to 300 nM on FGFR3 (V555M).

Consider `C[C@@H](Oc1cc2c(-c3ccc(N4CC(C)(CN5CCCC5)C4)nc3)n[nH]c2cc1F)c1c(Cl)cncc1Cl` [Example 188, (R)-5-(1-(3,5-dichloropyridin-4-yl)ethoxy)-6-fluoro-3-(6-(3-methyl-3-(pyrrolidin-1-ylmethyl)azetidin-1-yl)pyridin-3-yl)-1H-indazole], for which the Kd on FGFR1, on FGFR4, at FGFR3, at FGFR2 and on FGFR3 (V555M) was 1 to 50 nM in each case.

As for `CC(C)NCC1(C)CN(c2ccc(-c3n[nH]c4cc(F)c(O[C@H](C)c5c(Cl)cncc5Cl)cc34)cn2)C1` [Example 189, (R)-N-((1-(5-(5-(1-(3,5-dichloro-pyridin-4-yl)ethoxy)-6-fluoro-1H-indazol-3-yl)pyridin-2-yl)-3-methylazetidin-3-yl)methyl)propan-2-amine], the Kd on FGFR1, on FGFR4, on FGFR3, at FGFR2 and at FGFR3 (V555M) was 1 to 50 nM in each case.

As for `CC(C)NCC1(C)CN(c2ccc(-c3n[nH]c4ccc(O[C@H](C)c5c(Cl)cncc5Cl)c(F)c34)cn2)C1` [Example 190, (R)-N-((1-(5-(5-(1-(3,5-dichloro-pyridin-4-yl)ethoxy)-4-fluoro-1H-indazol-3-yl)pyridin-2-yl)-3-methylazetidin-3-yl)methyl)propan-2-amine], the Kd on FGFR1 was in the range of 300 to 1000 nM; on FGFR4, 300 to 1000 nM; at FGFR3, 1 to 50 nM; on FGFR2 it was 300 to 1000 nM; on FGFR3 (V555M), 1 to 50 nM.

`C[C@@H](Oc1ccc2[nH]nc(-c3ccc(N4CC(C)(CN5CCCC5)C4)nc3)c2c1F)c1c(Cl)cncc1Cl` [Example 191, (R)-5-(1-(3,5-dichloropyridin-4-yl)ethoxy)-4-fluoro-3-(6-(3-methyl-3-(pyrrolidin-1-ylmethyl)azetidin-1-yl)pyridin-3-yl)-1H-indazole]: the Kd on FGFR1 was 300 to 1000 nM; at FGFR4, 300 to 1000 nM; on FGFR3, 50 to 300 nM; at FGFR2, 300 to 1000 nM; at FGFR3 (V555M), 1 to 50 nM.

For the compound `C[C@@H](Oc1ccc2[nH]nc(-c3ccc(N4CC(C)(NCCO)C4)nc3)c2c1F)c1c(Cl)cncc1Cl` [Example 192, (R)-2-((1-(5-(5-(1-(3,5-dichloro-pyridin-4-yl)ethoxy)-4-fluoro-1H-inda-zol-3-yl)pyridin-2-yl)-3-methylazetidin-3-yl)amino)ethanol], the Kd on FGFR1 fell in the range of 300 to 1000 nM; at FGFR4, 300 to 1000 nM; on FGFR3 it was 50 to 300 nM; at FGFR2, 300 to 1000 nM; at FGFR3 (V555M), 1 to 50 nM.

As for `C[C@@H](Oc1cc2c(-c3cnc(N4CC(C)(CP(C)(C)=O)C4)c(F)c3)n[nH]c2cc1F)c1c(Cl)cncc1Cl` [Example 193, (R)-((1-(5-(5-(1-(3,5-dichloro-pyridin-4-yl)ethoxy)-6-fluoro-1H-indazol-3-yl)-3-fluoropyridin-2-yl)-3-methylazetidin-3-yl)methyl)dimethyl-phosphine oxide], the dissociation constant Kd on FGFR1, on FGFR4, at FGFR3, at FGFR2 and at FGFR3 (V555M) was 1 to 50 nM in each case.

Turning to `COc1cc2[nH]nc(-c3cnc(N4CC(C)(CS(C)(=O)=O)C4)c(F)c3)c2cc1O[C@H](C)c1c(Cl)cncc1Cl` [Example 194, (R)-5-(1-(3,5-dichloropyridin-4-yl)ethoxy)-3-(5-fluoro-6-(3-methyl-3-((methyl-sulfonyl)meth-yl)azetidin-1-yl)pyridin-3-yl)-6-methoxy-1H-indazole], the Kd at FGFR1, at FGFR4, on FGFR3, at FGFR2 and at FGFR3 (V555M) was 1 to 50 nM each time.

On to `C[C@@H](Oc1ccc2[nH]nc(-c3cnc(N4CC(C)(CS(C)(=O)=O)C4)nc3)c2c1)c1c(Cl)cncc1Cl` [Example 195, (R)-5-(1-(3,5-dichloro-pyridin-4-yl)ethoxy)-3-(2-(3-methyl-3-((methylsulfonyl)-methyl)azetidin-1-yl)pyrimidin-5-yl)-1H-indazole], for which the Kd at FGFR1, at FGFR4, on FGFR3, on FGFR2 and on FGFR3 (V555M) was 1 to 50 nM in each case.
